In US9540702B2, “Stabilization of enzymes with stable coenzymes” (Roche Diabetes Care, Inc., priority 2009, dated 2017):

Assays:
malate dehydrogenase = settings: 3.8 mM ligand; 0.5M carbonate buffer, pH 10.0
Experimental: The DSC device was cleaned and calibrated according to the MicroCal handbook before carrying out the measurements in order to ensure a correct operation. Lysozyme (1 mg/ml) in 0.1 M glycine-HCl pH 2.4 was measured in duplicate as a control before and after each scan process. Measuring cells, valve and syringe were washed three times with water after every six injections. The data was analysed using the MicroClas Origin software.
In each case 0.1 M Tris buffer, pH 8.5 was used as the measurement buffer if not stated otherwise.

D-lactate dehydrogenase = D-lactate dehydrogenase (Lactobacillus delbrueckii subsp. bulgaricus, UniProt P26297); assay: DSC of coenzyme binding; settings: 3.8 mM ligand; 0.1M Tris buffer, pH 7.5
[1] = molecular target: glucose dehydrogenase (GlucDH, wild-type) (Bacillus subtilis, UniProt P12310); assay: Residual activity of GlucDH stored dry on Pokalon foils with coenzyme at 32° C., 85% relative air humidity; assay type: biochemical
Experimental: carbaNAD (FIG. 1A) or NAD were added to the glucose-specific GlucDH. These formulations were each applied to Pokalon foils (Lonza) and, after drying, stored under warm and humid conditions (32° C., 85% relative air humidity). Subsequently, the reaction kinetics and the function curve were determined at regular intervals. In parallel at each of the measurement times a cNAD/NAD analysis and a determination of the residual activity of the enzyme were carried out.
The result of the determination of residual activity of the active enzyme GlucDH after 5 weeks at 32° C. and 85% relative air humidity (FIG. 7A) is completely surprising. The enzyme stabilized with NAD now only has an extremely low enzyme activity (0.5%), whereas the enzyme stabilized with cNAD still has a residual activity of 70% (in each case compared to the samples stored in a refrigerator (KS) with desiccant (TM)). After 24 weeks at 32° C. and 85% relative air humidity (FIG. 7B) the residual activity of the enzyme when stabilized with cNAD is still about 25%.

diaphorase [2] = assay: Diaphorase activity extracted from triglyceride test strips after storage; assay type: biochemical; settings: triglyceride test strips stored at 32° C. and 30-70% relative air humidity
Experimental: A composition which, among others, contained glycerol dehydrogenase, carbaNAD, diaphorase and a tetrazolium salt was used to determine triglycerides. Test strips were obtained by applying the formulation mentioned in Table 4 to a polycarbonate foil by means of a doctor blade (layer height 80 μm) and subsequent drying, and they were stored at 32° C. and 30-70% relative air humidity.

[3] = molecular target: T1, alcohol dehydrogenase (ADH) (Saccharomyces cerevisiae, UniProt P00330); assay: Stability of alcohol dehydrogenase with coenzyme in a liquid phase at 35° C.; assay type: biochemical, yeast; settings: 65 hours at 35° C., 5 mg/ml ADH, 50 mg/ml coenzyme, pH 9.0
T1 sequence (P00330 1-348): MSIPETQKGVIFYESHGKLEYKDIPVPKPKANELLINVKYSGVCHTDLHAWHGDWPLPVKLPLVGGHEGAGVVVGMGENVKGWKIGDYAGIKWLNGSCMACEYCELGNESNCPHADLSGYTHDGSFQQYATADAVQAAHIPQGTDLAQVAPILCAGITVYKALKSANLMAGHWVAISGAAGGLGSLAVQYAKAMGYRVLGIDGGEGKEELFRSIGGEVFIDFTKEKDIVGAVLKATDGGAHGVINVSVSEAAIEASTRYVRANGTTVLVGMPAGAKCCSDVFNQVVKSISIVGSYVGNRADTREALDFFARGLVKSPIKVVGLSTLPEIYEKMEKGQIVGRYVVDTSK
Experimental: FIG. 12 is a graphical illustration of the stability of alcohol dehydrogenase from yeast in the presence of NAD or cNAD in a liquid phase at 35° C. for a period of 65 hours with test conditions of 5 mg/ml ADH; 50 mg/ml NAD or cNAD; buffer: 75 mM Na4P2O7; glycine, pH 9.0; temperature 35° C.
cNAD or NAD was added to a detection solution containing alcohol dehydrogenase. These mixtures were stored at 2-8° C. and at 35° C. Subsequently, the stability of alcohol dehydrogenase (ADH) was checked at regular intervals and the residual activity of the enzyme was determined.
The residual activity of alcohol dehydrogenase in the presence of the native coenzyme NAD is at about 6% after 65 hours at 35° C., whereas the residual activity of the enzyme in the presence of the artificial coenzyme cNAD is still at about 60%.

[4] = molecular target: T2, diaphorase (from porcine heart) (Sus scrofa, UniProt P09623); assay: Diaphorase activity in liquid reagent for lactate dehydrogenase stored at 25° C.; assay type: biochemical; settings: liquid reagent stored at 25° C.; 2 mM carbaNAD or 0.2 mM NAD; various storage times
T2 construct: 3 U/ml diaphorase (from porcine heart); from tissue; host or cells: porcine heart
T2 sequence (P09623 36-509): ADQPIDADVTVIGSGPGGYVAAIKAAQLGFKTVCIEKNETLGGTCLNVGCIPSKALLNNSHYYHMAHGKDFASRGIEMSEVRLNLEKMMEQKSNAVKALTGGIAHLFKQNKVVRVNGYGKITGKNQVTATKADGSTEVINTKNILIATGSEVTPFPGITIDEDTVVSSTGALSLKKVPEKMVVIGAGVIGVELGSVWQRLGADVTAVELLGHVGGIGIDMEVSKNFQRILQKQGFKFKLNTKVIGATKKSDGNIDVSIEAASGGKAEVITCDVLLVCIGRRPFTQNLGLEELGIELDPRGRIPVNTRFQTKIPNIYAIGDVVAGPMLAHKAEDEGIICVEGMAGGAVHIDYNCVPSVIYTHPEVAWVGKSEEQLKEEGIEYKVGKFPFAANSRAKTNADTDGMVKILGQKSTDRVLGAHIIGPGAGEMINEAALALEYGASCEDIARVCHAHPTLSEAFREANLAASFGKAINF
Experimental: A liquid reagent which, among others, contained diaphorase, carbaNAD, a tetrazolium salt and lactate was used to determine the activity of lactate dehydrogenase. The detection reagent which was stored in solution at 25° C. contained the following ingredients:
3 U/ml diaphorase (from porcine heart)
2 mM carbaNAD or 0.2 mM NAD
2 mM tetrazolium salt WST-3
0.1 M tricine/HCl, pH 8.8

[5] = tested on: L-lactate dehydrogenase (porcine); assay: DSC of coenzyme binding; settings: 3.8 mM ligand; 0.1 M Tris buffer, pH 8.5
diaphorase [6] = assay: Diaphorase activity extracted from blood glucose test strips after storage; assay type: biochemical; settings: blood glucose test strips stored at 32° C. and 30-70% relative air humidity
Experimental: A composition which, among others, contained glucose dehydrogenase (GlucDH), carbaNAD, diaphorase, nitrosoaniline and phosphomolybdic acid was used to determine blood glucose. Test strips were obtained by applying a first formulation to a polycarbonate foil using a doctor blade (layer height 100 μm), drying the first layer, applying a second formulation to the first layer (doctor blade gap 30 μm), and drying the second layer. The test strips were stored at 32° C. and 30-70% relative air humidity.

D-lactate dehydrogenase, sequence (P26297 whole entry): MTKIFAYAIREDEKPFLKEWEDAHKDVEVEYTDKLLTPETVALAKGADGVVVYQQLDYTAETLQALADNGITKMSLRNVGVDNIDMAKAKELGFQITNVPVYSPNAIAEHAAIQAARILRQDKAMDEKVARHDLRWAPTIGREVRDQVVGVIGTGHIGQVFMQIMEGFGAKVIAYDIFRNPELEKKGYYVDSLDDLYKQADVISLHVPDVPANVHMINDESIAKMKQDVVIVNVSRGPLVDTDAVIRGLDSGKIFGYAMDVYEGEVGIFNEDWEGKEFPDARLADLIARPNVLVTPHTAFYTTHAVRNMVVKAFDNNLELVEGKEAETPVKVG
glucose dehydrogenase (GlucDH, wild-type), sequence (P12310 whole entry): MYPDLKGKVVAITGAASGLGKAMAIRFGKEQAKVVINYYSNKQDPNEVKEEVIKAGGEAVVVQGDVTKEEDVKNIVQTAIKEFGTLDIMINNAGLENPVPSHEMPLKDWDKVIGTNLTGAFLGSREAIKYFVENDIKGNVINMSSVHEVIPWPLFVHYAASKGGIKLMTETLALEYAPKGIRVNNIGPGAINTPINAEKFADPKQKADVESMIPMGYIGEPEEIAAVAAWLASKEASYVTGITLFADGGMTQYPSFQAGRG

NC(=O)c1ccc[n+]([C@@H]2C[C@H](COP(=O)([O-])OP(=O)(O)OC[C@H]3O[C@@H](n4cnc5c(N)ncnc54)[C@H](O)[C@@H]3O)[C@@H](O)[C@H]2O)c1 [carbaNAD]
TM (malate dehydrogenase): 43.2 °C
ΔHcal (malate dehydrogenase): 340 kcal/mol
TM (D-lactate dehydrogenase): 59.1 °C
ΔHcal (D-lactate dehydrogenase): 19 kcal/mol
residual activity of GlucDH ([1]; 5 weeks at 32° C. and 85% relative air humidity, compared to samples stored in refrigerator with desiccant): 70%
residual activity of GlucDH ([1]; 24 weeks at 32° C. and 85% relative air humidity): about 25%
residual activity of diaphorase compared to formulation containing NAD (diaphorase [2]): considerably increased residual activity
residual activity of alcohol dehydrogenase [3]: about 60%
residual activity of diaphorase compared to formulation containing NAD [4]: considerably increased residual activity
TM [5]: 61.5 °C
ΔHcal [5]: 82 kcal/mol
residual activity of diaphorase compared to formulation containing NAD (diaphorase [6]): considerably increased residual activity
